This passage reports T/C results from PubChem BioAssay AID192 (DTP/NCI, 2004).

The test system of the experiment is BDF1 mice, B16 melanoma ip, median survival T/C. In words: NCI In Vivo Anticancer Drug Screen. Data for tumor model B16 Melanoma (intraperitoneal) in B6D2F1 (BDF1) mice. The following applies: endpoint: median survival time, higher = longer survival. The method, boiled down: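 Each result divides a survival or tumor-size measurement in the compound-treated group by the same measurement in the vehicle group.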

Where [1] appears, read: dose: 100.0 mg/kg/injection, schedule: Q01DX009 (ip), vehicle: Klucel (hydroxypropylcellulose) (HPC).
[2] abbreviates: dose: 200.0 mg/kg/injection, schedule: Q01DX009 (ip), vehicle: Klucel (hydroxypropylcellulose) (HPC).
[3] abbreviates: dose: 400.0 mg/kg/injection, schedule: Q01DX009 (ip), vehicle: Klucel (hydroxypropylcellulose) (HPC).
Setting [4] is: dose: 12.5 mg/kg/injection, schedule: Q01DX009 (ip), vehicle: saline.
Where [5] appears, read: dose: 25.0 mg/kg/injection, schedule: Q01DX009 (ip), vehicle: saline.
Setting [6] is: dose: 50.0 mg/kg/injection, schedule: Q01DX009 (ip), vehicle: Klucel (hydroxypropylcellulose) (HPC).
Where [7] appears, read: dose: 200.0 mg/kg/injection, schedule: Q01DX009 (ip), vehicle: saline with Tween-80.
Setting [8] is: dose: 6.25 mg/kg/injection, schedule: Q01DX009 (ip), vehicle: saline with Tween-80.
The mark [9] stands for this setting: dose: 12.5 mg/kg/injection, schedule: Q01DX009 (ip), vehicle: saline with Tween-80.

Where “and” joins values, the source holds several entries; their conditions need not be identical. Equal values may be shown once. Inconclusive results and toxic doses are left out. Square brackets hold non-standard residues; d marks the D form. Peptide text beside a SMILES is read from it. * marks the point of attachment. ξ: configuration not given here. Cbz = O=C(OCc1ccccc1)*; ξNle = CCCCC(N)C(=O)O

As for `COc1cccc(CNc2ccc(SC)cc2)c1OC`, the T/C under setting [1] was 100 % of control, the T/C under setting [2] was 93 % of control and the T/C under setting [3] was 93 % of control.

With `N=C(N)SCc1c2ccccc2c(CSC(=N)N)c2ccccc12`, the T/C is, setting by setting: under setting [4], 238 % of control; under setting [5], 285 % of control.

As to `O=C1CCC2(CCC(=O)c3ccccc32)C(=O)N1` (stereo not drawn), the T/C was 119 % of control under setting [6], 114 % of control under setting [1] and 116 % of control under setting [2].

For the molecule `COc1cc(NC(=O)CC(C)=O)cc(OC)c1OC`, the T/C reads like this: (dose: 100.0 mg/kg/injection, schedule: Q01DX009 (ip), vehicle: saline) 112 % of control; (dose: 132.0 mg/kg/injection, schedule: Q01DX009 (ip), vehicle: saline with Tween-80) 100 % of control; under setting [7], 95 % of control; (dose: 300.0 mg/kg/injection, schedule: Q01DX009 (ip), vehicle: saline with Tween-80) 95 % of control; (dose: 400.0 mg/kg/injection, schedule: Q01DX009 (ip), vehicle: saline) 90 % of control.

In the case of `CN(C)CCCCNc1ccc(NCCCCN(C)C)c2c1C(=O)c1c(O)ccc(O)c1C2=O`, the T/C reads like this: (dose: 6.25 mg/kg/injection, schedule: Q01DX009 (ip), vehicle: saline) 95 % of control; under setting [4], 93 % of control; under setting [5], 90 % of control and 110 % of control.

For the molecule `CCC1CC2CN(CCc3c([nH]c4ccccc34)C(C(=O)OC)(c3cc4c(cc3OC)N(C)C3C(O)(C(=O)OC)C(OC(C)=O)C5(CC)C=CCN6CCC43C65)C2)C1` (stereo not drawn), the T/C by setting is: (dose: 0.05 mg/kg/injection, schedule: Q01DX009 (ip), vehicle: Klucel (hydroxypropylcellulose) (HPC)) 111 % of control; (dose: 0.06 mg/kg/injection, schedule: Q01DX009 (ip), vehicle: water) 109 % of control and 110 % of control; (dose: 0.13 mg/kg/injection, schedule: Q01DX009 (ip), vehicle: water) 105 % of control and 114 % of control; (dose: 0.25 mg/kg/injection, schedule: Q01DX009 (ip), vehicle: water) 173 % of control; (dose: 0.4 mg/kg/injection, schedule: Q01DX009 (ip), vehicle: Klucel (hydroxypropylcellulose) (HPC)) 192 % of control; (dose: 0.5 mg/kg/injection, schedule: Q01DX009 (ip), vehicle: water) 210 % of control. The T/C runs as follows: (dose: 0.5 mg/kg/injection, schedule: Q04DX003 (ip), vehicle: water) 166 % of control; (dose: 0.8 mg/kg/injection, schedule: Q01DX009 (ip), vehicle: Klucel (hydroxypropylcellulose) (HPC)) 224 % of control; (dose: 1.0 mg/kg/injection, schedule: Q01DX009 (ip), vehicle: water) 151 % of control and 163 % of control and 174 % of control; (dose: 1.0 mg/kg/injection, schedule: Q04DX003 (ip), vehicle: water) 206 % of control; (dose: 1.6 mg/kg/injection, schedule: Q01DX009 (ip), vehicle: Klucel (hydroxypropylcellulose) (HPC)) 229 % of control; (dose: 2.0 mg/kg/injection, schedule: Q01DX009 (ip), vehicle: water) 170 % of control and 178 % of control. For the same molecule, the T/C (dose: 2.0 mg/kg/injection, schedule: Q04DX003 (ip), vehicle: water) is 234 % of control.

As to `O=C(O)C(=O)O.O=C([O-])C(=O)[O-].O=C([O-])C(=O)[O-].[NH-]CC[NH-].[NH-]CC[NH-].[NH-]CC[NH-].[Ru+4].[Ru+5]`, the T/C runs as follows: (dose: 12.5 mg/kg/injection, schedule: Q04DX003 (ip), vehicle: water) 112 % of control; (dose: 25.0 mg/kg/injection, schedule: Q04DX003 (ip), vehicle: water) 107 % of control.

Consider `CCC1OCC(C(Cl)CCl)O1` (stereo not drawn), for which the T/C is 90 % of control and 97 % of control (dose: 12.5 mg/kg/injection, schedule: Q01DX009 (ip), vehicle: Klucel (hydroxypropylcellulose) (HPC)); 88 % of control and 109 % of control (dose: 25.0 mg/kg/injection, schedule: Q01DX009 (ip), vehicle: Klucel (hydroxypropylcellulose) (HPC)); 86 % of control and 97 % of control under setting [6]; 94 % of control and 105 % of control under setting [1]; 89 % of control and 117 % of control under setting [2]; 105 % of control under setting [3].

Take `C[C@]12CC[C@H](OC3OC(CO)C(O)C(O)C3O)C[C@H]1CC[C@@H]1[C@@H]2CC[C@]2(C)[C@@H](C3=CCOC3=O)CC[C@]12O` (stereo partly drawn): the T/C is, setting by setting: (dose: 0.5 mg/kg/injection, schedule: Q01DX009 (ip), vehicle: saline) 107 % of control; (dose: 1.0 mg/kg/injection, schedule: Q01DX009 (ip), vehicle: saline) 92 % of control; (dose: 2.0 mg/kg/injection, schedule: Q01DX009 (ip), vehicle: saline) 105 % of control.

As to `c1ccc2cc3c(ccc4ccccc43)cc2c1`, the T/C (dose: 50.0 mg/kg/injection, schedule: Q01DX009 (ip), vehicle: distilled water + Tween-80) was 109 % of control; the T/C (dose: 100.0 mg/kg/injection, schedule: Q01DX009 (ip), vehicle: distilled water + Tween-80) is 103 % of control; the T/C (dose: 200.0 mg/kg/injection, schedule: Q01DX009 (ip), vehicle: distilled water + Tween-80) was 100 % of control.

Regarding `NC(=S)N/N=C/c1cc(-c2cccc(N)c2)ccn1`, the T/C runs as follows: under setting [8], 104 % of control and 123 % of control and 124 % of control; under setting [9], 122 % of control; under setting [4], 166 % of control; under setting [5], 156 % of control; (dose: 37.5 mg/kg/injection, schedule: Q04DX003 (ip), vehicle: saline) 166 % of control; (dose: 75.0 mg/kg/injection, schedule: Q01DX009 (ip), vehicle: saline with Tween-80) 124 % of control. Moreover, the T/C is, setting by setting: (dose: 75.0 mg/kg/injection, schedule: Q04DX003 (ip), vehicle: saline) 156 % of control; (dose: 150.0 mg/kg/injection, schedule: Q04DX003 (ip), vehicle: saline) 150 % of control.

Take `COC(=O)[C@@H]1[C@@H](O)[C@H](OC(=O)c2cc(OC)c(OC)c(OC)c2)C[C@@H]2CN3CCc4c([nH]c5ccccc45)[C@H]3C[C@@H]21`: the T/C was 107 % of control (dose: 1.5 mg/kg/injection, schedule: Q01DX009 (ip), vehicle: Klucel (hydroxypropylcellulose) (HPC)); 98 % of control (dose: 3.0 mg/kg/injection, schedule: Q01DX009 (ip), vehicle: Klucel (hydroxypropylcellulose) (HPC)); 97 % of control (dose: 6.0 mg/kg/injection, schedule: Q01DX009 (ip), vehicle: Klucel (hydroxypropylcellulose) (HPC)).

Turning to `N#CC(C#N)=CN1CCCCCC1`, the T/C is 107 % of control (dose: 3.13 mg/kg/injection, schedule: Q01DX009 (ip), vehicle: saline with Tween-80); 93 % of control (dose: 3.13 mg/kg/injection, schedule: Q04DX003 (ip), vehicle: saline with Tween-80); 102 % of control under setting [8]; 97 % of control (dose: 6.25 mg/kg/injection, schedule: Q04DX003 (ip), vehicle: saline with Tween-80); 102 % of control under setting [9]; 100 % of control (dose: 12.5 mg/kg/injection, schedule: Q04DX003 (ip), vehicle: saline with Tween-80).

As for `CCCCCCCCC(O)CC` (stereo not drawn), the T/C is 98 % of control under setting [6], 97 % of control under setting [1] and 93 % of control under setting [2].

`Cc1cc(C)cc(OC(=O)Nc2ccccc2Cl)c1`: the T/C is 96 % of control (dose: 100.0 mg/kg/injection, schedule: Q04DX003 (ip), vehicle: Klucel (hydroxypropylcellulose) (HPC)); 96 % of control (dose: 200.0 mg/kg/injection, schedule: Q04DX003 (ip), vehicle: Klucel (hydroxypropylcellulose) (HPC)); 106 % of control (dose: 400.0 mg/kg/injection, schedule: Q04DX003 (ip), vehicle: Klucel (hydroxypropylcellulose) (HPC)).

In the case of `COc1ccccc1NC(=O)Nc1ccccc1OC`, the T/C was 89 % of control under setting [1], 89 % of control under setting [2] and 88 % of control under setting [3].

Turning to `CCCCC(NC(=O)OCc1ccccc1)C(=O)NCC(=O)OC` (stereo not drawn) (Cbz-[ξNle]-Gly-OMe), the T/C was 96 % of control (dose: 50.0 mg/kg/injection, schedule: Q01DX009 (ip), vehicle: saline with Tween-80); 115 % of control (dose: 100.0 mg/kg/injection, schedule: Q01DX009 (ip), vehicle: saline with Tween-80); 112 % of control under setting [7]; 92 % of control (dose: 400.0 mg/kg/injection, schedule: Q01DX009 (ip), vehicle: saline with Tween-80).

For the molecule `CCN(CC)CCOC(=O)Cc1ccccc1`, the T/C runs as follows: under setting [1], 106 % of control; under setting [2], 103 % of control; under setting [3], 103 % of control.

With `CCOC(=O)C(=Cc1ccc(C=C(C(=O)OCC)C(=O)OCC)cc1)C(=O)OCC`, the T/C under setting [6] is 93 % of control and the T/C under setting [2] is 93 % of control.
